Source: patent US20200405696A1, “INHIBITORS OF INDOLEAMINE 2,3-DIOXYGENASE AND/OR TRYPTOPHAN 2,3-DIOXYGENASE” (IDORSIA PHARMACEUTICALS LTD, priority 2018, published 2020)

How the values were obtained:
[1] = molecular target: T1, Recombinant full-length human IDO1 (Homo sapiens, UniProt P14902); test: IDO1 enzymatic assay (NFK quantified by LCMS); assay type: biochemical; conditions: 2 nM enzyme, 5 μM L-tryptophan, pH6.5, 30 minutes pre-incubation at RT; mean values when measured multiple times; read-out: hIDO activity (IC50 in nM)
T1 construct: Recombinant full-length human IDO1 with a N-terminal hexahistidine tag; hexahistidine (His6) (N); made in house; host or cells: E. coli
T1 sequence (P14902 whole entry): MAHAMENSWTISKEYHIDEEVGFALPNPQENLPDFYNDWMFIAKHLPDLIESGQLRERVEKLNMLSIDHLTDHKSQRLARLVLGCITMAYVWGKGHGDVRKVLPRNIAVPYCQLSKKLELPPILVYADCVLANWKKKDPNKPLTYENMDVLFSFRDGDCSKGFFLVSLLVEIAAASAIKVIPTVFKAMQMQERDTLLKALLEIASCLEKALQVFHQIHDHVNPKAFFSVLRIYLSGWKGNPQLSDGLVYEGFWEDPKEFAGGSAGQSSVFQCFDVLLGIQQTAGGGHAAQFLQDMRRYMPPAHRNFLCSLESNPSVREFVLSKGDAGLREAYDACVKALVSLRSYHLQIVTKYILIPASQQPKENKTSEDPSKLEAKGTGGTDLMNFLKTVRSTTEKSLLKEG
Procedure: 1) Testing Compounds for IDO Inhibitory Activity in an IDO1 Enzymatic Assay:
Recombinant full-length human IDO1 with a N-terminal hexahistidine tag expressed in E. coli and purified to homogeneity is incubated at a final concentration of 2 nM in assay buffer consisting of 37.5 mM phosphate buffer at pH6.5 supplemented with 10 mM ascorbic acid, 0.45 μM methylene blue, 50U/ml catalase, 0.01% BSA, and 0.01% Tween 20 (protocol modified from Seegers et al, JBS 2014). Example compounds are serially diluted in DMSO, further diluted in phosphate buffer, and added to the enzyme at final concentrations ranging from 10 μM to 0.5 nM. The final DMSO concentration is 0.6%. Following a pre-incubation of 30 minutes at RT, the reaction is started by the addition of L-tryptophan at a final concentration of 5 μM in assay buffer. After 30 minutes of incubation at RT, 3 μL of the 20 μl reaction mixture are transferred to a 384 deep well plate containing 25 μL of deionized water. 100 μl of 200 nM L-Tryptophan-(indole-d5) in cold 100% methanol are added followed by a 10 minutes centrifugation at 3220×g at 4° C. An additional 75 μL of deionized water are then added followed by a 10 minutes centrifugation at 3220×g at 4° C. The product of the reaction N′-Formylkynurenine (NFK) is quantified by LCMS and normalized to the L-Tryptophan-(indole-d5) signal. Samples with 0.6% DMSO (0% effect) and a TDO/IDO inhibitor (100% effect) are used as control samples to set the parameters for the non-linear regression necessary for the determination of the half-maximal inhibitory concentration (IC50) for each compound. For each compound concentration the percentage of activity compared to 0% and 100% effect is calculated as average±STDEV (each concentration measured in duplicate). IC50 values and curves are generated with XLfit software (IDBS) using Dose-Response One Site model 203 (four parameter logistic curve model). The calculated IC50 values may fluctuate depending on the daily assay performance. Fluctuations of this kind are known to those skilled in the art. When compounds are measured multiple times, mean values are given.

[2] = molecular target: T2, Recombinant human TDO comprising amino acids 19-407 (Homo sapiens, UniProt P48775); test: TDO2 enzymatic assay (NFK quantified by LCMS); assay type: biochemical; conditions: 15 nM enzyme, 200 μM L-tryptophan, pH7, 30 minutes pre-incubation at RT; mean values when measured multiple times; read-out: hTDO activity (IC50 in nM)
T2 construct: Recombinant human TDO comprising amino acids 19-407 with a N-terminal hexahistidine tag; hexahistidine (His6) (N); made in house; host or cells: E. coli
T2 sequence (P48775 19-406 limits assumed): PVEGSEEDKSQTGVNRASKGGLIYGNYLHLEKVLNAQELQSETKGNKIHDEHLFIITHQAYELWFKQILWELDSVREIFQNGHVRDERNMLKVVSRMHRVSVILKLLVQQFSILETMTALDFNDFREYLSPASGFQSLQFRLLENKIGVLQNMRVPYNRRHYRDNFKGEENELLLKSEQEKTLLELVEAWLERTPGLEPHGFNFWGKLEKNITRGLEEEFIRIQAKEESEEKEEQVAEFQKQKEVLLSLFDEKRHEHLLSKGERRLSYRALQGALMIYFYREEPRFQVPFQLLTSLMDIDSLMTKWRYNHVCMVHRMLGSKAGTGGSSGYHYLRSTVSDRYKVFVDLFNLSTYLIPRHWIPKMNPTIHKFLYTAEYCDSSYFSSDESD
Procedure: 2) Testing Compounds for TDO Inhibitory Activity in a TDO2 Enzymatic Assay:
Recombinant human TDO comprising amino acids 19-407 with a N-terminal hexahistidine tag expressed in E. coli and purified to homogeneity is incubated at a final concentration of 15 nM in assay buffer consisting of 75 mM phosphate buffer at pH7 supplemented with 100 μM ascorbic acid, 50U/ml Catalase, 0.01% BSA, and 0.01% Tween 20 (protocol modified from Seegers et al, JBS 2014). Example compounds are serially diluted in DMSO, further diluted in phosphate buffer, and added to the reaction mixture at final concentrations ranging from 10 μM to 0.5 nM. The final DMSO concentration is 0.6%. Following a pre-incubation of 30 minutes at RT, the reaction is started by the addition of L-tryptophan at a final concentration of 200 μM in assay buffer. After 30 minutes of incubation at RT, 3 μL of the reaction mixture are transferred to a 384 deep well plate containing 25 μL of deionized water. 100 μl of 200 nM L-Tryptophan-(indole-d5) in cold 100% methanol are added followed by a 10 minutes centrifugation at 3220×g at 4° C. An additional 75 μL of deionized water are then added followed by a 10 minutes centrifugation at 3220×g at 4° C. The product of the reaction N′-Formylkynurenine (NFK) is quantified by LCMS and normalized to the L-Tryptophan-(indole-d5) signal. Samples with 0.6% DMSO (0% effect) and a TDO/IDO inhibitor (100% effect) are used as control samples to set the parameters for the non-linear regression necessary for the determination of the half-maximal inhibitory concentration (IC50) for each compound. For each compound concentration the percentage of activity compared to 0% and 100% effect is calculated as average±STDEV (each concentration measured in duplicate). IC50 values and curves are generated with XLfit software (IDBS) using Dose-Response One Site model 203 (four parameter logistic curve model). The calculated IC50 values may fluctuate depending on the daily assay performance. Fluctuations of this kind are known to those skilled in the art. When compounds are measured multiple times, mean values are given.

Row | Structure (SMILES) | IC50 [1] [nM] | IC50 [2] [nM]
1 | CCc1sc2cncn2c1C(O)c1cn(-c2ccc(NC(N)=O)cc2)nn1 (racemic) [Example 131, rac-(4-{4-[(2-Ethyl-imidazo[5,1-b]thiazol-3-yl)-hydroxy-methyl]-[1,2,3]triazol-1-yl}-phenyl)-urea] | 22.3 | 2150
2 | COc1ccc(-n2cc(C(O)c3c(C4CC4)sc4cncn34)nn2)nc1OC (racemic) [Example 66, rac-(2-Cyclopropyl-imidazo[5,1-b]thiazol-3-yl)-[1-(5,6-dimethoxy-pyridin-2-yl)-1H-[1,2,3]triazol-4-yl]-methanol] | 200 | > 10200
3 | OC(c1cn(-c2ccc(CN3CCOCC3)cc2)nn1)c1c(C2CC2)sc2cncn12 (racemic) [Example 37, rac-(2-Cyclopropyl-imidazo[5,1-b]thiazol-3-yl)-[1-(4-morpholin-4-ylmethyl-phenyl)-1H-[1,2,3]triazol-4-yl]-methanol] | 175 | > 10200
4 | OC(c1cn(-c2ccccc2)cn1)c1c(C2CC2)sc2cncn12 (racemic) [Example 178, rac-(2-Cyclopropyl-imidazo[5,1-b]thiazol-3-yl)-(1-phenyl-1H-imidazol-4-yl)-methanol] | 515 | > 10200
5 | OC(c1cn(-c2ccc(OC(F)(F)F)cc2)nn1)c1c(C2CC2)sc2cncn12 (racemic) [Example 31, rac-(2-Cyclopropyl-imidazo[5,1-b]thiazol-3-yl)-[1-(4-trifluoromethoxy-phenyl)-1H-[1,2,3]triazol-4-yl]-methanol] | 108 | > 10200
6 | CCc1sc2cncn2c1C(O)c1cn(-c2ccc(C(N)=O)cc2)nn1 (racemic) [Example 116, rac-4-{4-[(2-Ethyl-imidazo[5,1-b]thiazol-3-yl)-hydroxy-methyl]-[1,2,3]triazol-1-yl}-benzamide] | 12.3 | 5210
7 | NC(=O)Nc1ccc(-n2cc(C(O)c3c(C4CC4)sc4cncn34)nn2)cc1 (racemic) [Example 109, rac-(4-{4-[(2-Cyclopropyl-imidazo[5,1-b]thiazol-3-yl)-hydroxy-methyl]-[1,2,3]triazol-1-yl}-phenyl)-urea] | 24 | 7110
8 | CC(=O)c1ccc(-n2cc(C(O)c3c(C4CC4)sc4cncn34)nn2)cc1 (racemic) [Example 10, rac-1-(4-{4-[(2-Cyclopropyl-imidazo[5,1-b]thiazol-3-yl)-hydroxy-methyl]-[1,2,3]triazol-1-yl}-phenyl)-ethanone] | 18.4 | > 10200
9 | COc1ncc(-n2cc(C(O)c3c(C4CC4)sc4cncn34)nn2)cc1C (racemic) [Example 71, rac-(2-Cyclopropyl-imidazo[5,1-b]thiazol-3-yl)-[1-(6-methoxy-5-methyl-pyridin-3-yl)-1H-[1,2,3]triazol-4-yl]-methanol] | 55.9 | > 10200
10 | COc1cccc(-n2cc(C(O)c3c(C4CC4)sc4cncn34)nn2)c1 (racemic) [Example 8, rac-(2-Cyclopropyl-imidazo[5,1-b]thiazol-3-yl)-[1-(3-methoxy-phenyl)-1H-[1,2,3]triazol-4-yl]-methanol] | 35.5 | > 10200

Other lines, results leading:

Row | IC50 [1] [nM] | IC50 [2] [nM] | Structure (SMILES)
11 | 442 | > 10200 | OC(c1cn(-c2ccc(OCC3CC3)c(Cl)c2)nn1)c1c(-c2ccccc2)sc2cncn12 (racemic) [Example 265, rac-[1-(3-Chloro-4-cyclopropylmethoxy-phenyl)-1H-[1,2,3]triazol-4-yl]-(2-phenyl-imidazo[5,1-b]thiazol-3-yl)-methanol]
12 | 38.5 | > 10200 | Cn1ncc2cccc(-n3cc(C(O)c4c(C5CC5)sc5cncn45)nn3)c21 (racemic) [Example 254, rac-(2-Cyclopropyl-imidazo[5,1-b]thiazol-3-yl)-[1-(1-methyl-1H-indazol-7-yl)-1H-[1,2,3]triazol-4-yl]-methanol]
13 | 31.6 | > 10200 | COCc1ccc(-n2cc(C(O)c3c(C4CC4)sc4cncn34)nn2)cc1 (racemic) [Example 330, rac-(2-Cyclopropyl-imidazo[5,1-b]thiazol-3-yl)-[1-(4-methoxymethyl-phenyl)-1H-[1,2,3]triazol-4-yl]-methanol]
14 | 210 | > 10200 | CC(C)(O)CCOc1ccc(-n2cc(C(O)c3c(-c4ccccc4)sc4cncn34)nn2)cc1Cl (racemic) [Example 268, rac-4-(2-Chloro-4-{4-[hydroxy-(2-phenyl-imidazo[5,1-b]thiazol-3-yl)-methyl]-[1,2,3]triazol-1-yl}-phenoxy)-2-methyl-butan-2-ol]
15 | 626 | > 10200 | CS(=O)(=O)CCOc1ccc(-n2cc(C(O)c3c(C4CC4)sc4cncn34)nn2)cc1 (racemic) [Example 205, rac-(2-Cyclopropyl-imidazo[5,1-b]thiazol-3-yl)-{1-[4-(2-methanesulfonyl-ethoxy)-phenyl]-1H-[1,2,3]triazol-4-yl}-methanol]
16 | 569 | > 10200 | CC(C)(C)OC(=O)Nc1ccc(-n2cc(C(O)c3c(-c4ccccc4)sc4cncn34)nn2)cc1 (racemic) [Example 251, rac-(4-{4-[Hydroxy-(2-phenyl-imidazo[5,1-b]thiazol-3-yl)-methyl]-[1,2,3]triazol-1-yl}-phenyl)-carbamic acid tert-butyl ester]
17 | 36.7 | 7940 | CCc1sc2cncn2c1C(O)c1cn(-c2ccc(NC(=O)OC(C)(C)C)cc2)nn1 (racemic) [Example 234, rac-(4-{4-[(2-Ethyl-imidazo[5,1-b]thiazol-3-yl)-hydroxy-methyl]-[1,2,3]triazol-1-yl}-phenyl)-carbamic Acid Tert-Butyl Ester]
18 | 28.9 | > 10200 | COc1ccc(-n2cc(C(O)c3c(C4CC4)sc4cncn34)nn2)c(F)c1Cl (racemic) [Example 292, rac-[1-(3-Chloro-2-fluoro-4-methoxy-phenyl)-1H-[1,2,3]triazol-4-yl]-(2-cyclopropyl-imidazo[5,1-b]thiazol-3-yl)-methanol]
19 | 71.3 | > 10200 | Oc1ccccc1Cn1cc(C(O)c2c(C3CC3)sc3cncn23)nn1 (racemic) [Example 305, rac-2-{4-[(2-Cyclopropyl-imidazo[5,1-b]thiazol-3-yl)-hydroxy-methyl]-[1,2,3]triazol-1-ylmethyl}-phenol]
20 | 53 | > 10200 | CCNS(=O)(=O)c1ccc(-n2cc(C(O)c3c(C4CC4)sc4cncn34)nn2)cc1 (racemic) [Example 239, rac-4-{4-[(2-Cyclopropyl-imidazo[5,1-b]thiazol-3-yl)-hydroxy-methyl]-[1,2,3]triazol-1-yl}-N-ethyl-benzenesulfonamide]
